# Experiments:
# [1] = test system: Human gastric cancer cells (MKN-45); assay: Inhibitory activity against the proliferation of human gastric cancer cells (MKN-45); format: cell-based; settings: 72 h, MKN-45, 1% FBS RPMI1640, 3 days, Cell Counting Kit-8
# How it was run: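 MKN-45 cells seeded overnight in RPMI1640 with 1% FBS, then exposed to compound for 3 days at 37° C, 5% CO2. Viability read with CCK-8 after about 1.5 hrs, absorbance at 450 nm (reference 660 nm).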
# [2] = target: T1, His6-HGFR (HGFR cytoplasmic domain) (Homo sapiens, UniProt P08581); assay: Inhibitory activity against HGFR tyrosine kinase activity (HTRF); format: biochemical; settings: biotin-poly(GT), ATP, 30° C. 10 min
# T1 construct: made in house; host or cells: Sf9 insect cells (Spodoptera frugiperda), baculovirus, pFastBac-HT vector
# T1 sequence (P08581 956-1390 limits assumed): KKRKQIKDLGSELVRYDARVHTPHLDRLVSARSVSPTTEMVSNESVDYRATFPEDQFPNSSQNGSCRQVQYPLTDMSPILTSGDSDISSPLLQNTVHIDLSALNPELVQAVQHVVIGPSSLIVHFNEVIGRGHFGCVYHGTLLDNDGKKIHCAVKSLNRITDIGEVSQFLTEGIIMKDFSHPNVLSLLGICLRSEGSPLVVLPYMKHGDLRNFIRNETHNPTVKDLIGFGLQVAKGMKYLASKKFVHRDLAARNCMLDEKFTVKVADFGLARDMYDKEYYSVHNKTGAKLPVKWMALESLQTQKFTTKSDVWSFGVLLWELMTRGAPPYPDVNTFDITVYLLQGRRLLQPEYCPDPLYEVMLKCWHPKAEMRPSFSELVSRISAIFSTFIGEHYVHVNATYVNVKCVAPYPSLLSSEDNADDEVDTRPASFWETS
# How it was run: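 Sf9-expressed, Ni-NTA-purified N-terminal His6-tagged HGFR cytoplasmic domain (from Lys974), 30 ng, phosphorylates 250 ng biotin-poly(GT) in Hepes pH 7.4 with MgCl2, MnCl2 and Na3VO4. Reaction started with 4 μM ATP stock, run 10 min at 30° C, stopped with EDTA. Phosphotyrosine is detected by HTRF.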
Compound,IC50 [1],IC50 [2]
"CN(C)[C@@H]1CCN(C(=O)Nc2cc(Oc3ccc(NC(=O)C4(C(=O)Nc5ccc(F)cc5)CC4)c(F)c3)ccn2)C1 [Example 47, N-(4-{[2-({[(3R)-3-(Dimethylamino)pyrrolidin-1-yl]carbonyl}amino)pyridin-4-yl]oxy}-2-fluorophenyl)-N′-(4-fluorophenyl)cyclopropane-1,1-dicarboxamide]",27 nM,83 nM
"O=C(Nc1cc(Oc2ccc(NC(=O)C3(C(=O)Nc4ccc(F)cc4)CC3)cc2)ccn1)N1CCC(N2CCC2)CC1 [Example 13, N-{4-[(2-{[(4-Azetidin-1-ylpiperidin-1-yl)carbonyl]amino}pyridin-4-yl)oxy]phenyl}-N′-(4-fluorophenyl)cyclopropane-1,1-dicarboxamide]",76 nM,55 nM
COC1CN(C(=O)Nc2cc(Oc3ccc(NC(=O)C4(C(=O)Nc5ccc(F)cc5)CC4)cc3F)ccn2)C1 [Example 79],15 nM,14 nM
"CN1CCC(N(C)C(=O)Nc2cc(Oc3ccc(NC(=O)C4(C(=O)Nc5ccc(F)cc5)CC4)cc3F)ccn2)CC1 [Example 1, N-(3-Fluoro-4-{[2-({[methyl(1-methylpiperidin-4-yl)amino]carbonyl}amino)pyridin-4-yl]oxy}phenyl)-N′-(4-fluorophenyl)cyclopropane-1.1-dicarboxamide]",13 nM,66 nM
"CN(C)CC1CN(C(=O)Nc2cc(Oc3ccc(NC(=O)C4(C(=O)Nc5ccc(F)cc5)CC4)c(F)c3F)ccn2)C1 [Example 107, N-[4-({2-[({3-[(Dimethylamino)methyl]azetidine-1-yl}carbonyl)amino]pyridin-4-yl}oxy)-2,3-difluorophenyl]-N′-(4-fluorophenyl)cyclopropane-1,1-dicarboxamide]",21 nM,61 nM
"CCN1CCC(N(C)C(=O)Nc2cc(Oc3ccc(NC(=O)C4(C(=O)Nc5ccccc5)CC4)c(F)c3)ccn2)CC1 [Example 60, N-(4-{[2-({[(1-Ethylpiperidin-4-yl)(methyl)amino]carbonyl}amino)pyridin-4-yl]oxy}-2-fluorophenyl)-N′-phenylcyclopropane-1′-dicarboxamide]",15 nM,82 nM
"CN1CCN(C2CCN(C(=O)Nc3cc(Oc4ccc(NC(=O)C5(C(=O)Nc6ccccc6)CC5)c(F)c4)ccn3)CC2)CC1 [Example 54, N-(2-Fluoro-4-{[2-({[4-(4-methylpiperazin-1-yl)piperidin-1-yl]carbonyl}amino)pyridin-4-yl]oxy}phenyl)-N′-phenylcyclopropane-1,1-dicarboxamide]",20 nM,64 nM
"CN(C)C1CCN(C(=O)Nc2cc(Oc3cc(F)c(NC(=O)C4(C(=O)Nc5ccc(F)cc5)CC4)cc3F)ccn2)CC1 [Example 103, N-(4-{[2-({[4-(Dimethylamino)piperidin-1-yl]carbonyl}amino)pyridin-4-yl]oxy}-2,5-difluorophenyl)-N′-(4-fluorophenyl)cyclopropane-1,1-dicarboxamide]",5.8 nM,57 nM
"CN(C)CCN1CCN(C(=O)Nc2cc(Oc3ccc(NC(=O)C4(C(=O)Nc5ccc(F)cc5)CC4)cc3)ccn2)CC1 [Example 30, N-[4-({2-[({4-[2-(Dimethylamino)ethyl]piperazin-1-yl}carbonyl)amino]pyridin-4-yl}oxy)phenyl]-N′-(4-fluorophenyl)cyclopropane-1,1-dicarboxamide]",39 nM,44 nM
"O=C(Nc1cc(Oc2ccc(NC(=O)C3(C(=O)Nc4ccc(F)cc4)CC3)cc2F)ccn1)N1CCOCC1 [Example 67, N-[3-Fluoro-4-({2-[(morpholin-4-ylcarbonyl)amino]pyridin-4-yl}oxy)phenyl]-N′-(4-fluorophenyl)-cyclopropane-1,1-dicarboxamide]",52 nM,17 nM
"CN(C)[C@H]1CCN(C(=O)Nc2cc(Oc3ccc(NC(=O)C4(C(=O)Nc5ccc(F)cc5)CC4)cc3F)ccn2)C1 [Example 24, N-(4-{[2-({[(3S)-3-(Dimethylamino)pyrrolidin-1-yl]carbonyl}amino)pyridin-4-yl]oxy}-3-fluorophenyl)-N′-(4-fluorophenyl)cyclopropane-1,1-dicarboxamide]",17 nM,48 nM
"CN(C)C1CN(C(=O)Nc2cc(Oc3ccc(NC(=O)C4(C(=O)Nc5ccc(F)cc5)CC4)c(F)c3)ccn2)C1 [Example 76, N-(4-{[2-({[3-(Dimethylamino)azetidin-1-yl]carbonyl}amino)pyridin-4-yl]oxy}-2-fluorophenyl)-N′-(4-fluorophenyl)cyclopropane-1,1-dicarboxamide]",19 nM,45 nM
"CN(C)[C@H]1CCN(C(=O)Nc2cc(Oc3ccc(NC(=O)C4(C(=O)Nc5ccccc5)CC4)c(F)c3)ccn2)C1 [Example 58, N-(4-{[2-({[(3S)-3-(Dimethylamino)pyrrolidin-1-yl]carbonyl}amino)pyridin-4-yl]oxy}-2-fluorophenyl)-N′-phenylcyclopropane-1,1-dicarboxamide]",25 nM,85 nM
"CN(C)CCN1CCN(C(=O)Nc2cc(Oc3ccc(NC(=O)C4(C(=O)Nc5ccc(F)cc5)CC4)c(F)c3)ccn2)CC1 [Example 2, N-[4-({2-[({4-[2-(Dimethylamino)ethyl]piperazin-1-yl}carbonyl)amino]pyridin-4-yl}oxy)-2-fluorophenyl]-N′-(4-fluorophenyl)cyclopropane-1,1-dicarboxamide]",18 nM,55 nM
"O=C(Nc1cc(Oc2ccc(NC(=O)C3(C(=O)Nc4ccc(F)cc4)CC3)c(F)c2)ccn1)N1CC(N2CCC2)C1 [Example 73, N-[4-({2-[(1,3′-Biazetidin-1′-ylcarbonyl)amino]pyridin-4-yl}oxy)-2-fluorophenyl]-N′-(4-fluorophenyl)cyclopropane-1,1-dicarboxamide]",50 nM,105 nM
"CN1CCC(N(C)C(=O)Nc2cc(Oc3ccc(NC(=O)C4(C(=O)Nc5ccc(F)cc5F)CC4)c(F)c3)ccn2)CC1 [Example 56, N-(2,4-Difluorophenyl)-N′-(2-fluoro-4-{[2-({[methyl(1-methylpiperidin-4-yl)amino]carbonyl}amino)pyridin-4-yl]oxy}phenyl)cyclopropane-1,1-dicarboxamide]",53 nM,110 nM
"O=C(Nc1cc(Oc2ccc(NC(=O)C3(C(=O)Nc4ccc(F)cc4)CC3)c(F)c2)ccn1)N1CCOCC1 [Example 63, N-[2-Fluoro-4-({2-[(morpholin-4-ylcarbonyl)amino]pyridin-4-yl}oxy)phenyl]-N′-(4-fluorophenyl)cyclopropane-1,1-dicarboxamide]",54 nM,14 nM
"CN1CCC(N(C)C(=O)Nc2cc(Oc3ccc(NC(=O)C4(C(=O)Nc5ccccc5)CC4)c(F)c3)ccn2)CC1 [Example 48, N-(2-Fluoro-4-{[2-({[methyl(1-methylpiperidin-4-yl)amino]carbonyl}amino)pyridin-4-yl]oxy}phenyl)-N′-phenylcyclopropane-1,1-dicarboxamide]",17 nM,63 nM
"CN1CCC(N(C)C(=O)Nc2cc(Oc3cc(F)c(NC(=O)C4(C(=O)Nc5ccc(F)cc5)CC4)cc3F)ncn2)CC1 [Example 100, N-(2,5-Difluoro-4-{[4-({[methyl(1-methylpiperidin-4-yl)amino]carbonyl}amino)pyrimidin-6-yl]oxy}phenyl)-N′-(4-fluorophenyl)cyclopropane-1,1-dicarboxamide]",16 nM,85 nM
"O=C(Nc1cc(Oc2ccc(NC(=O)C3(C(=O)Nc4ccc(F)cc4)CC3)c(F)c2)ccn1)N1CCC(N2CCCC2)CC1 [Example 4, N-(4-Fluorophenyl)-N′-{2-fluoro-4-[(2-{[(4-pyrrolidin-1-ylpiperidin-1-yl)carbonyl]amino}pyridin-4-yl)oxy]phenyl}cyclopropane-1,1-dicarboxamide]",21 nM,45 nM
"CN1CCC(N(C)C(=O)Nc2cc(Oc3ccc(NC(=O)C4(C(=O)Nc5ccccc5F)CC4)c(F)c3)ccn2)CC1 [Example 57, N-(2-Fluoro-4-{[2-({[methyl(1-methylpiperidin-4-yl)amino]carbonyl}amino)pyridin-4-yl]oxy}phenyl)-N′-(2-fluorophenyl)cyclopropane-1,1-dicarboxamide]",150 nM,180 nM
"CN(C)[C@H]1CCN(C(=O)Nc2cc(Oc3ccc(NC(=O)C4(C(=O)Nc5ccc(F)cc5)CC4)c(F)c3)ccn2)C1 [Example 46, N-(4-{[2-({[(3S)-3-(Dimethylamino)pyrrolidin-1-yl]carbonyl}amino)pyridin-4-yl]oxy}-2-fluorophenyl)-N′-(4-fluorophenyl)cyclopropane-1,1-dicarboxamide]",14 nM,64 nM
"CN(C)C1CN(C2CCN(C(=O)Nc3cc(Oc4ccc(NC(=O)C5(C(=O)Nc6ccc(F)cc6)CC5)cc4F)ccn3)CC2)C1 [Example 21, N-[4-({2-[({4-[3-(Dimethylamino)azetidin-1-yl]piperidin-1-yl}carbonyl)amino]pyridin-4-yl}oxy)-3-fluorophenyl]-N′-(4-fluorophenyl)cyclopropane-1,1-dicarboxamide]",27 nM,62 nM
"CN(C)C1CCN(C(=O)Nc2cc(Oc3ccc(NC(=O)C4(C(=O)Nc5ccc(F)cc5)CC4)c(F)c3)ccn2)CC1 [Example 18, N-(4-{[2-({[4-(Dimethylamino)piperidin-1-yl]carbonyl}amino)pyridin-4-yl]oxy}-2-fluorophenyl)-N′-(4-fluorophenyl)cyclopropane-1,1-dicarboxamide]",33 nM,53 nM

# From patent US7855290B2, “Pyridine derivatives and pyrimidine derivatives (3)” (Eisai R&D Management Co., Ltd., priority 2005, dated 2010)
